Like-named read-outs stand apart in the source and are kept apart here.
Assay: in vitro
Format: in vitro ADME
Details: human
Protocol: The bidirectional permeability of compounds across the Caco-2 cell monolayer was assessed. The Caco-2 model is a widely used in vitro model for small intestinal absorption and potential for efflux.
Cell culture. Caco-2 cells were grown in DMEM supplemented with 10% fetal bovine serum (FBS), 1% Penicillin-Streptomycin and 1% MEM NEAA. The cells were incubated at 37° C., 5% CO2/95% air and saturated humidity. After reaching 80-90% confluency, the cells were gently detached with trypsin. Cells at passage 39 were seeded on the 24-well BD insert system at the density of 8×10^4 cells/cm^2 and cultured for 19 days with medium changed every 2-3 days. Measure the transepithelial electrical resistance (TEER) value of each well. The wells can be used only when their TEER values are greater than 600 Ohms/cm^2.
Transport assay. After removing the cell culture medium from the 24-well insert plate, the cells were rinsed with warm transport buffer. Appropriate dosing and receiving solutions were applied to the donor and receiver chambers to initiate the transport assay in apical to basolateral (A to B) or basolateral to apical (B to A) directions ([…] for apical and basolateral wells, respectively). Duplicate wells in each direction were used for the test compound and control compound. The plate was incubated in CO2 incubator at 37° C., with 5% CO2/95% air and saturated humidity without shaking. The sample after 10-minute incubation was used as the T0 sample, and the sample after 90-minute incubation was used as the T90 sample. To and T90 samples were collected from the donor and receiver side of each well at the designed timepoint, mixed with the transport buffer and acetonitrile/MeOH (1:1, v/v) and the internal standard for LC/MS/MS analysis. All samples were vortexed and centrifuged at 4000 rpm at 4° C. for 15 minutes, diluted with pure water and stored at 4° C. before bioanalysis by LC/MS/MS.
Sample analysis. The concentrations of test compounds and control compounds in Caco-2 cells were quantitatively determined by LC/MS/MS method after protein precipitation.
Calculations. The apparent permeability (Papp, cm/s), efflux ratio (ER) and recovery parameters were calculated for Caco-2 drug transport assay using the following equations:
[formula] [formula] where VR is the solution volume in the receiver chamber (0.4 mL on the apical side, 1.2 mL on the basolateral side); Area is the surface area for the insert membrane, i.e., 0.3 cm^2 for the area of the monolayer; Time is incubation time, expressed in seconds, i.e., 5400 s (90 min) for the current experiment; Co is the initial concentration of test compound or peak area ratio of control compounds in the donor chamber (μM); VD is the volume in the donor chambers (0.4 mL on the apical side, 1.2 mL on the basolateral side); CD and CR are the final concentrations of test compounds or peak area ratio of control compounds in donor and receiver chambers, respectively.
Compounds with Papp<1.0 are classified as low permeability, Papp between 1-10 are classified as medium permeability, and Papp≥10 are classified as high permeability. An efflux ratio (ER)>2 indicates the compounds are potential substrates for intestinal cell efflux transporters.

[1] = Caco-2 monolayer, apical to basolateral, 90-minute incubation, read-out: Papp, A-B
[2] = Caco-2 monolayer, basolateral to apical, 90-minute incubation, read-out: Papp, B-A
[3] = Caco-2 monolayer, ER>2 indicates potential efflux transporter substrate, read-out: ER (efflux ratio)

## CCC(=O)O[C@H]1[C@@H](O)[C@](C#N)(c2ccc3c(N)ncnn23)O[C@@H]1COC(=O)CC1CCCCC1 [Compound 31, (2R,3S,4R,5R)-5-(4-aminopyrrolo[2,1-f][1,2,4]triazin-7-yl)-5-cyano-2-((2-cyclohexylacetoxy)methyl)-4-hydroxytetrahydrofuran-3-yl propionate]
Caco-2
  Papp A→B at 90 min: 5.6 ×10⁻⁶ cm/s
  Papp B→A at 90 min: 5.6 ×10⁻⁶ cm/s
  efflux ratio at 90 min: 1

## CC(C)(C)C(=O)OCO[C@H]1[C@@H](O)[C@](C#N)(c2ccc3c(N)ncnn23)O[C@@H]1COC(=O)CC1CCCCC1 [Compound 32, (((2R,3S,4R,5R)-5-(4-aminopyrrolo[2,1-f][1,2,4]triazin-7-yl)-5-cyano-2-((2-cyclohexylacetoxy)methyl)-4-hydroxytetrahydrofuran-3-yl)oxy)methyl pivalate]
Caco-2
  Papp A→B at 90 min: 6.9 ×10⁻⁶ cm/s
  Papp B→A at 90 min: 5.5 ×10⁻⁶ cm/s
  efflux ratio at 90 min: 0.8

## CC(C)[C@H](N)C(=O)OC[C@H]1O[C@@](C#N)(c2ccc3c(N)ncnn23)[C@H](O)[C@@H]1OC(=O)CC1CCCCC1 [Compound 34, ((2R,3S,4R,5R)-5-(4-aminopyrrolo[2,1-f][1,2,4]triazin-7-yl)-5-cyano-3-(2-cyclohexylacetoxy)-4-hydroxytetrahydrofuran-2-yl)methyl L-valinate]
Caco-2
  Papp A→B at 90 min: 1.6 ×10⁻⁶ cm/s
  Papp B→A at 90 min: 4.8 ×10⁻⁶ cm/s
  efflux ratio at 90 min: 3

## CC(C)[C@H](N)C(=O)OC[C@H]1O[C@@](C#N)(c2ccc3c(N)ncnn23)[C@H](O)[C@@H]1OC(=O)Cc1ccccc1 [Compound 36, ((2R,3S,4R,5R)-5-(4-aminopyrrolo[2,1-f][1,2,4]triazin-7-yl)-5-cyano-4-hydroxy-3-(2-phenylacetoxy)tetrahydrofuran-2-yl)methyl L-valinate]
[1]
  Papp A→B at 90 min: 1.1 ×10⁻⁶ cm/s
[2]
  Papp B→A at 90 min: 10.3 ×10⁻⁶ cm/s
[3]
  efflux ratio at 90 min: 9.8

## CC(=O)O[C@H]1[C@@H](O)[C@](C#N)(c2ccc3c(N)ncnn23)O[C@@H]1COC(=O)[C@@H](N)C(C)C [Compound 37, ((2R,3S,4R,5R)-3-acetoxy-5-(4-aminopyrrolo[2,1-f][1,2,4]triazin-7-yl)-5-cyano-4-hydroxytetrahydrofuran-2-yl)methyl L-valinate]
Caco-2
  Papp A→B at 90 min: 0.37 ×10⁻⁶ cm/s
  Papp B→A at 90 min: 0.12 ×10⁻⁶ cm/s
  efflux ratio at 90 min: 0.33

## CC(C)C(=O)O[C@H]1[C@@H](O)[C@](C#N)(c2ccc3c(N)ncnn23)O[C@@H]1COC(=O)[C@@H](N)C(C)C [Compound 38, ((2R,3S,4R,5R)-5-(4-aminopyrrolo[2,1-f][1,2,4]triazin-7-yl)-5-cyano-4-hydroxy-3-(isobutyryloxy)tetrahydrofuran-2-yl)methyl L-valinate]
Caco-2
  Papp A→B at 90 min: 0.22 ×10⁻⁶ cm/s
  Papp B→A at 90 min: 3.3 ×10⁻⁶ cm/s
  efflux ratio at 90 min: 15

## CCC(=O)O[C@H]1[C@@H](O)[C@](C#N)(c2ccc3c(N)ncnn23)O[C@@H]1COC(=O)[C@@H](N)C(C)C [Compound 39, ((2R,3S,4R,5R)-5-(4-aminopyrrolo[2,1-f][1,2,4]triazin-7-yl)-5-cyano-4-hydroxy-3-(propionyloxy)tetrahydrofuran-2-yl)methyl L-valinate]
[1]
  Papp A→B at 90 min: 0.23 ×10⁻⁶ cm/s
[2]
  Papp B→A at 90 min: 2.3 ×10⁻⁶ cm/s
[3]
  efflux ratio at 90 min: 10

## CC(C)CC(=O)O[C@H]1[C@@H](O)[C@](C#N)(c2ccc3c(N)ncnn23)O[C@@H]1COC(=O)Cc1ccccc1 [Compound 41, (2R,3S,4R,5R)-5-(4-aminopyrrolo[2,1-f][1,2,4]triazin-7-yl)-5-cyano-4-hydroxy-2-((2-phenylacetoxy)methyl)tetrahydrofuran-3-yl 3-methylbutanoate]
[1]
  Papp A→B at 90 min: 19 ×10⁻⁶ cm/s
[2]
  Papp B→A at 90 min: 31 ×10⁻⁶ cm/s
[3]
  efflux ratio at 90 min: 1.6

## CC(C)[C@H](N)C(=O)O[C@H]1[C@@H](O)[C@](C#N)(c2ccc3c(N)ncnn23)O[C@@H]1COC(=O)Cc1ccccc1 [Compound 43, (2R,3S,4R,5R)-5-{4-aminopyrrolo[2,1-f][1,2,4]triazin-7-yl}-5-cyano-4-hydroxy-2-{[(2-phenylacetyl)oxy]methyl}oxolan-3-yl (2S)-2-amino-3-methylbutanoate]
[1]
  Papp A→B at 90 min: 0.74 ×10⁻⁶ cm/s
[2]
  Papp B→A at 90 min: 0.22 ×10⁻⁶ cm/s
[3]
  efflux ratio at 90 min: 0.3

## N#C[C@@]1(c2ccc3c(N)ncnn23)O[C@H](COC(=O)Cc2ccccc2)[C@@H](OC(=O)Cc2ccccc2)[C@H]1O [Compound 44, (2R,3S,4R,5R)-5-(4-aminopyrrolo[2,1-f][1,2,4]triazin-7-yl)-5-cyano-4-hydroxy-2-((2-phenylacetoxy)methyl)tetrahydrofuran-3-yl 2-phenylacetate]
[1]
  Papp A→B at 90 min: 9.8 ×10⁻⁶ cm/s
[2]
  Papp B→A at 90 min: 25 ×10⁻⁶ cm/s
[3]
  efflux ratio at 90 min: 2.5

## CC(=O)O[C@H]1[C@@H](O)[C@](C#N)(c2ccc3c(N)ncnn23)O[C@@H]1COC(=O)Cc1ccccc1 [Compound 45, ((2R,3S,4R,5R)-3-acetoxy-5-(4-aminopyrrolo[2,1-f][1,2,4]triazin-7-yl)-5-cyano-4-hydroxytetrahydrofuran-2-yl)methyl 2-phenylacetate]
[1]
  Papp A→B at 90 min: 0.8 ×10⁻⁶ cm/s
[2]
  Papp B→A at 90 min: 3.4 ×10⁻⁶ cm/s
[3]
  efflux ratio at 90 min: 4.3

## CC(C)C(=O)O[C@H]1[C@@H](O)[C@](C#N)(c2ccc3c(N)ncnn23)O[C@@H]1COC(=O)Cc1ccccc1 [Compound 46, (2R,3S,4R,5R)-5-(4-aminopyrrolo[2,1-f][1,2,4]triazin-7-yl)-5-cyano-4-hydroxy-2-((2-phenylacetoxy)methyl)tetrahydrofuran-3-yl isobutyrate]
[1]
  Papp A→B at 90 min: 2.7 ×10⁻⁶ cm/s
[2]
  Papp B→A at 90 min: 4.8 ×10⁻⁶ cm/s
[3]
  efflux ratio at 90 min: 1.8

## CCC(=O)O[C@H]1[C@@H](O)[C@](C#N)(c2ccc3c(N)ncnn23)O[C@@H]1COC(=O)Cc1ccccc1 [Compound 47, (2R,3S,4R,5R)-5-(4-aminopyrrolo[2,1-f][1,2,4]triazin-7-yl)-5-cyano-4-hydroxy-2-((2-phenylacetoxy)methyl)tetrahydrofuran-3-yl propionate]
[1]
  Papp A→B at 90 min: 2 ×10⁻⁶ cm/s
[2]
  Papp B→A at 90 min: 5.1 ×10⁻⁶ cm/s
[3]
  efflux ratio at 90 min: 2.5

## CC(C)(C)C(=O)OCO[C@H]1[C@@H](O)[C@](C#N)(c2ccc3c(N)ncnn23)O[C@@H]1COC(=O)Cc1ccccc1 [Compound 48, {[(2R,3S,4R,5R)-5-{4-aminopyrrolo[2,1-f][1,2,4]triazin-7-yl}-5-cyano-4-hydroxy-2-{[(2-phenylacetyl)oxy]methyl}oxolan-3-yl]oxy}methyl 2,2-dimethylpropanoate]
[1]
  Papp A→B at 90 min: 6.9 ×10⁻⁶ cm/s
[2]
  Papp B→A at 90 min: 1.9 ×10⁻⁶ cm/s
[3]
  efflux ratio at 90 min: 0.27

## CC(=O)OC[C@H]1O[C@@](C#N)(c2ccc3c(N)ncnn23)[C@H](O)[C@@H]1OC(=O)CC(C)C [Compound 49, (2R,3S,4R,5R)-2-(acetoxymethyl)-5-(4-aminopyrrolo[2,1-f][1,2,4]triazin-7-yl)-5-cyano-4-hydroxytetrahydrofuran-3-yl 3-methylbutanoate]
Caco-2
  Papp A→B at 90 min: 3.9 ×10⁻⁶ cm/s
  Papp B→A at 90 min: 2.7 ×10⁻⁶ cm/s
  efflux ratio at 90 min: 0.7

## CC(=O)OC[C@H]1O[C@@](C#N)(c2ccc3c(N)ncnn23)[C@H](O)[C@@H]1OC(=O)CC1CCCCC1 [Compound 50, (2R,3S,4R,5R)-2-(acetoxymethyl)-5-(4-aminopyrrolo[2,1-f][1,2,4]triazin-7-yl)-5-cyano-4-hydroxytetrahydrofuran-3-yl 2-cyclohexylacetate]
Caco-2
  Papp A→B at 90 min: 1.9 ×10⁻⁶ cm/s
  Papp B→A at 90 min: 0.76 ×10⁻⁶ cm/s
  efflux ratio at 90 min: 0.39

## CC(=O)OC[C@H]1O[C@@](C#N)(c2ccc3c(N)ncnn23)[C@H](O)[C@@H]1OC(=O)Cc1ccccc1 [Compound 52, (2R,3S,4R,5R)-2-(acetoxymethyl)-5-(4-aminopyrrolo[2,1-f][1,2,4]triazin-7-yl)-5-cyano-4-hydroxytetrahydrofuran-3-yl 2-phenylacetate]
[1]
  Papp A→B at 90 min: 1.4 ×10⁻⁶ cm/s
[2]
  Papp B→A at 90 min: 0.89 ×10⁻⁶ cm/s
[3]
  efflux ratio at 90 min: 0.65

## CC(=O)OC[C@H]1O[C@@](C#N)(c2ccc3c(N)ncnn23)[C@H](O)[C@@H]1OC(=O)C(C)C [Compound 54, (2R,3S,4R,5R)-2-(acetoxymethyl)-5-(4-aminopyrrolo[2,1-f][1,2,4]triazin-7-yl)-5-cyano-4-hydroxytetrahydrofuran-3-yl isobutyrate]
Caco-2
  Papp A→B at 90 min: 2.6 ×10⁻⁶ cm/s
  Papp B→A at 90 min: 2.4 ×10⁻⁶ cm/s
  efflux ratio at 90 min: 0.94

Reference: patent US12102648B2, “Orally-bioavailable nucleoside analogs” (priority 2021, dated 2024)
